Measurements from ChEMBL document CHEMBL5247662, “Design, syntheses and biological evaluation of natural product aiphanol derivatives and analogues: Discovery of potent anticancer agents” (Bioorg Med Chem Lett, 2023).

Key:
Type in all cases: functional, cell-based
[1] = test system: HT-29; assay: Antiproliferative activity against human HT-29 cells assessed as inhibition of cell growth measured after 48 hrs by CCK-8 assay; conditions: HT-29, 48 h
[2] = test system: HCT-116; assay: Antiproliferative activity against human HCT-116 cells assessed as inhibition of cell growth measured after 48 hrs by CCK-8 assay; conditions: HCT-116, 48 h
[3] = test system: MCF7; assay: Antiproliferative activity against human MCF7 cells assessed as inhibition of cell growth measured after 48 hrs by CCK-8 assay; conditions: MCF7, 48 h
[4] = test system: SW1990; assay: Antiproliferative activity against human SW1990 cells assessed as inhibition of cell growth measured after 48 hrs by CCK-8 assay; conditions: SW1990, 48 h
[5] = test system: HepG2; assay: Antiproliferative activity against human HepG2 cells assessed as inhibition of cell growth measured after 48 hrs by CCK-8 assay; conditions: HepG2, 48 h
[6] = test system: KYSE-30; assay: Antiproliferative activity against human KYSE-30 cells expressing luciferase assessed as inhibition of cell growth measured after 48 hrs by CCK-8 assay; conditions: KYSE-30, 48 h
[7] = test system: AGS; assay: Antiproliferative activity against human AGS cells assessed as inhibition of cell growth measured after 48 hrs by CCK-8 assay
[8] = test system: Bel-7402; assay: Antiproliferative activity against human Bel-7402 cells assessed as inhibition of cell growth measured after 48 hrs by CCK-8 assay; conditions: Bel-7402, 48 h

Compound: CCOC(=O)/C=C/c1ccc2c(c1)O[C@@H](c1cc(OC)c(O)c(OC)c1)[C@H](CO)O2
- IC50 [1]: > 50 µM
- IC50 [2]: > 50 µM

Compound: COc1cc([C@@H]2Oc3cc(/C=C/c4ccc(NC(C)=O)cc4)ccc3O[C@H]2CO)cc(OC)c1O
- IC50 [1]: > 100 µM
- IC50 [2]: > 100 µM

Compound: COc1cc([C@@H]2Oc3cc(/C=C/c4cc(O)cc(O)c4)ccc3O[C@H]2CN)cc(OC)c1O
- IC50 [1]: 14.1 µM
- IC50 [2]: 27 µM

Compound: COc1cc([C@@H]2Oc3cc(/C=C/c4cc(O)cc(O)c4)ccc3O[C@H]2CO[C@@H]2O[C@H](CO)[C@@H](O)[C@H](O)[C@H]2O)cc(OC)c1O
- IC50 [1]: > 200 µM
- IC50 [2]: > 200 µM

Compound: COc1cc([C@@H]2Oc3cc(/C=C/c4cc(O)cc(O)c4)ccc3O[C@H]2CNC(=O)S(=O)(=O)c2ccc(C)cc2)cc(OC)c1O
- IC50 [1]: 5.89 µM
- IC50 [2]: 4.63 µM
- IC50 [3]: 6.31 µM
- IC50 [4]: 9.65 µM
- IC50 [5]: 7.44 µM
- IC50 [6]: 17.9 µM
- IC50 [7]: 4.95 µM
- IC50 [8]: 6.29 µM

Compound: COc1cc([C@@H]2Oc3cc(CCc4cc(O)cc(O)c4)ccc3O[C@H]2CO)cc(OC)c1O
- IC50 [1]: 16.4 µM
- IC50 [2]: 49.8 µM

Compound: COC(=O)c1ccc(/C=C/c2ccc3c(c2)O[C@@H](c2cc(OC)c(O)c(OC)c2)[C@H](CO)O3)cc1
- IC50 [1]: 10.3 µM
- IC50 [2]: 21.2 µM

Compound: COc1cc([C@@H]2Oc3cc(C=O)ccc3O[C@H]2CO)cc(OC)c1O
- IC50 [1]: > 100 µM
- IC50 [2]: > 100 µM

Compound: OC[C@@H]1Oc2ccc(/C=C/c3cc(O)cc(O)c3)cc2O[C@H]1c1cc(F)c(O)c(F)c1
- IC50 [1]: 41.4 µM
- IC50 [2]: > 50 µM

Compound: COc1cc([C@@H]2Oc3cc(/C=C/c4ccccc4C#N)ccc3O[C@H]2CO)cc(OC)c1O
- IC50 [1]: 14.8 µM
- IC50 [2]: 12.4 µM

Compound: COc1cc([C@@H]2Oc3cc(/C=C/c4ccc([N+](=O)[O-])cc4)ccc3O[C@H]2CO)cc(OC)c1O
- IC50 [1]: 4.63 µM
- IC50 [2]: 7.16 µM

Compound: COc1cc([C@@H]2Oc3cc(/C=C/c4ccc5ccccc5n4)ccc3O[C@H]2CO)cc(OC)c1O
- IC50 [1]: 14.9 µM
- IC50 [2]: 8.83 µM

Compound: OC[C@@H]1Oc2ccc(/C=C/c3cc(O)cc(O)c3)cc2O[C@H]1c1ccc(O)cc1
- IC50 [1]: 24.1 µM
- IC50 [2]: > 50 µM

Compound: COc1cc([C@@H]2Oc3cc(/C=C/c4cccc(C#N)c4)ccc3O[C@H]2CO)cc(OC)c1O
- IC50 [1]: 13.5 µM
- IC50 [2]: 11.4 µM

Compound: COc1cc([C@@H]2Oc3cc(/C=C/c4cc(O)cc(O)c4)ccc3O[C@H]2CNC(=O)c2ccc(C(F)(F)F)cc2)cc(OC)c1O
- IC50 [1]: 8.84 µM
- IC50 [2]: 11.6 µM

Compound: COc1cc([C@@H]2Oc3cc(/C=C/c4cc(OC(C)=O)cc(OC(C)=O)c4)ccc3O[C@H]2COC(C)=O)cc(OC)c1OC(C)=O
- IC50 [1]: 10.4 µM
- IC50 [2]: 19.9 µM

Compound: COc1cc([C@@H]2Oc3cc(/C=C/c4cc(O)cc(O)c4)ccc3O[C@H]2CNC(=O)C(C)C)cc(OC)c1O
- IC50 [1]: 13.9 µM
- IC50 [2]: 33.1 µM

Compound: COc1cc([C@@H]2Oc3cc(/C=C/c4ccc(C(F)(F)F)cc4)ccc3O[C@H]2CO)cc(OC)c1O
- IC50 [1]: 25.1 µM
- IC50 [2]: 27.2 µM

Compound: COc1cc([C@@H]2Oc3cc(/C=C/c4ccccn4)ccc3O[C@H]2CO)cc(OC)c1O
- IC50 [1]: 33 µM
- IC50 [2]: 17.1 µM

Compound: OC[C@@H]1Oc2ccc(/C=C/c3cc(O)cc(O)c3)cc2O[C@H]1c1cc(Br)c(O)c(Br)c1
- IC50 [1]: 30.5 µM
- IC50 [2]: 39.7 µM

Compound: COc1cc([C@@H]2Oc3cc(/C=C/c4cc(O)cc(O)c4)ccc3O[C@H]2CNC(C)=O)cc(OC)c1O
- IC50 [1]: 8.52 µM
- IC50 [2]: 47.7 µM

Compound: COc1cc([C@@H]2Oc3cc(/C=C/c4ccc(C#N)cc4)ccc3O[C@H]2CO)cc(OC)c1O
- IC50 [1]: 2.42 µM
- IC50 [2]: 2.02 µM
- IC50 [3]: 1.21 µM
- IC50 [4]: 1.52 µM
- IC50 [5]: 2.23 µM
- IC50 [6]: 2.97 µM
- IC50 [7]: 0.81 µM
- IC50 [8]: 0.86 µM

Compound: COc1cc([C@@H]2Oc3ccccc3O[C@H]2CO)cc(OC)c1O
- IC50 [1]: > 100 µM
- IC50 [2]: > 100 µM

Compound: COc1cc([C@@H]2Oc3cc(/C=C/c4cc(O)cc(O)c4)ccc3O[C@H]2CNC(=O)c2ccc(F)c(F)c2)cc(OC)c1O
- IC50 [1]: 15.6 µM
- IC50 [2]: 14.2 µM

Compound: COc1cc([C@@H]2Oc3cc(-c4ccccc4)ccc3O[C@H]2CO)cc(OC)c1O
- IC50 [1]: 19.1 µM
- IC50 [2]: 16.7 µM

Compound: CCCCCCCCCCCCC(=O)NC[C@@H]1Oc2ccc(/C=C/c3cc(O)cc(O)c3)cc2O[C@H]1c1cc(OC)c(O)c(OC)c1
- IC50 [1]: 7.7 µM
- IC50 [2]: 14.5 µM

Compound: COc1ccc(C(=O)NC[C@@H]2Oc3ccc(/C=C/c4cc(O)cc(O)c4)cc3O[C@H]2c2cc(OC)c(O)c(OC)c2)cc1
- IC50 [1]: 16.1 µM
- IC50 [2]: 15.9 µM

Compound: COc1cc([C@@H]2Oc3cc(/C=C/c4ccccc4)ccc3O[C@H]2CO)cc(OC)c1O
- IC50 [1]: 9.14 µM
- IC50 [2]: 12.4 µM

Compound: COc1cc([C@@H]2Oc3cc(/C=C/c4cc(O)cc(O)c4)ccc3O[C@H]2CNC(=O)c2ccccc2)cc(OC)c1O
- IC50 [1]: 19.6 µM
- IC50 [2]: 15.9 µM

Compound: COc1cc([C@@H]2Oc3cc(/C=C/c4ccsc4)ccc3O[C@H]2CO)cc(OC)c1O
- IC50 [1]: 22.9 µM
- IC50 [2]: 42.2 µM

Compound: COc1cc([C@@H]2Oc3cc(/C=C/c4cc(O)cc(O)c4)ccc3O[C@H]2CNC(=O)c2ccc(F)cc2)cc(OC)c1O
- IC50 [1]: 7.9 µM
- IC50 [2]: 16.8 µM

Compound: COc1cc([C@@H]2Oc3cc(/C=C/c4cc(OC(C)=O)cc(OC(C)=O)c4)ccc3O[C@H]2CO)cc(OC)c1OC(C)=O
- IC50 [1]: 7.92 µM
- IC50 [2]: 30.9 µM

Compound: COc1cc([C@@H]2Oc3cc(/C=C/c4ccc(I)cc4)ccc3O[C@H]2CO)cc(OC)c1O
- IC50 [1]: 25 µM
- IC50 [2]: 28.3 µM

Compound: COc1cc([C@@H]2Oc3cc(/C=C/c4cc(O)cc(O)c4)ccc3O[C@H]2CO[C@@H]2O[C@H](CO)[C@H](O)[C@H](O)[C@H]2O)cc(OC)c1O
- IC50 [1]: > 200 µM
- IC50 [2]: > 200 µM

Compound: OC[C@@H]1Oc2ccc(/C=C/c3cc(O)cc(O)c3)cc2O[C@H]1c1cc(Cl)c(O)c(Cl)c1
- IC50 [1]: 55.3 µM
- IC50 [2]: > 50 µM

Compound: COc1cc([C@@H]2Oc3cc(/C=C/c4cc(O)cc(O)c4)ccc3O[C@H]2CNC(=O)c2cc(F)c(F)c(F)c2)cc(OC)c1O
- IC50 [1]: 7.08 µM
- IC50 [2]: 12.3 µM

Compound: COc1cc([C@@H]2Oc3cc(/C=C/c4cc(O)cc(O)c4)ccc3O[C@H]2CO)cc(OC)c1O
- IC50 [1]: 8.36 µM
- IC50 [2]: 20 µM
- IC50 [3]: 45.3 µM
- IC50 [4]: 28.3 µM
- IC50 [5]: 39 µM
- IC50 [6]: 61.5 µM
- IC50 [7]: 38.9 µM
- IC50 [8]: 64.9 µM

Compound: COc1cc(/C=C/c2ccc3c(c2)O[C@@H](c2cc(OC)c(O)c(OC)c2)[C@H](CO)O3)cc(OC)c1
- IC50 [1]: 14 µM
- IC50 [2]: 16 µM

Compound: COc1cc([C@@H]2Oc3cc(/C=C/c4cc(O)cc(O)c4)ccc3O[C@H]2CNC(=O)S(C)(=O)=O)cc(OC)c1O
- IC50 [1]: 16.5 µM
- IC50 [2]: 29.5 µM

Compound: COc1cc(C2Oc3cc(/C=C/c4nc(C)c5ccccc5n4)ccc3OC2CO)cc(OC)c1O (single isomer, unassigned)
- IC50 [1]: 4.4 µM
- IC50 [2]: 3.86 µM
